Measurements: patent US6914045B2, “Glycopeptide antibiotics” (Wyeth Holdings Corporation, priority 2001, dated 2005)
Values after ≈ are worked out from the molar mass of the structure shown.

Tests used:
[1] = tested on: Staphylococcus aureus-SMITH (GC 4543); experiment: acute lethal infection in mice; format: in vivo; conditions: acute lethal infection, female CD-1 mice, intraperitoneal challenge, intravenous 30 min. after infection, 7 day survival
Method in brief: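 Female CD-1 mice (20+/−2 gm) were infected intraperitoneally with enough bacteria, suspended in trypticase soy broth or hog gastric mucin, to kill untreated controls within 24-48 hr. Compound in saline or 5% dextrose was given intravenously 30 min post-infection, five mice per dose. ED50 came from pooled 7 day survival of 3 tests.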

Enterococcus sp. = experiment: in vitro antibacterial evaluation, MIC by broth dilution; format: cell-based; conditions: broth dilution, 18 hours at 35° C.; for MIC Enterococcus faecalis (ATCC 29212): strain ATCC 29212; for MIC Enterococcus faecium (GC 2243): strain GC 2243; for MIC Enterococcus faecalis (GC 4552): strain GC 4552; for MIC Enterococcus faecalis (GC 4553): strain GC 4553; for MIC Enterococcus faecalis (GC 4554): strain GC 4554; for MIC Enterococcus faecium (GC 4556): strain GC 4556; for MIC Enterococcus faecium (GC 4557): strain GC 4557; for MIC Enterococcus avium (GC 4558): strain GC 4558; for MIC Enterococcus faecalis (GC 6189): strain GC 6189
Method in brief: (§1)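 Broth dilution per NCCLS M7-A2 in Mueller-Hinton II medium, inoculum 5×10^5 CFU/mL, antibiotic range 64-0.06 μg/mL. MIC taken as lowest concentration inhibiting growth; Gram-positive panel includes recent clinical isolates resistant to methicillin, penicillin and/or vancomycin.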

Streptococcus sp. = experiment: as above; format: cell-based; conditions: broth dilution, 18 hours at 35° C.
Method in brief: as §1

Staphylococcus sp. = experiment: as above; format: cell-based; conditions: broth dilution, 18 hours at 35° C.; for MIC Staphylococcus aureus (GC 1131): strain GC 1131
Method in brief: as §1

Escherichia coli = experiment: as above; format: cell-based
Method in brief: as §1

CC(c1ccccc1)C1NC(=O)CNC(=O)C(CO)NC(=O)C(C(O)C2CNC(=N)N2C2OC(CO)C(O)C(O)C2O)NC(=O)C(C(O)C2CNC(=N)N2)NC(=O)C(Cc2ccc(OC3OC(CO)C(OC4OC5COC(c6cc7c(cc6Cl)OCO7)OC5C(O)C4O)C(O)C3O)cc2)NC1=O (stereo not drawn) [Example 158, Cyclo[glycyl-β-methylphenylalanyl-O-[4-O-[4,6-O-[(6-chloro-1,3-benzodioxol-5-yl)-methylene]hexopyranosyl]hexopyranosyl]tyrosyl-3-(2-iminoimidazolidin-4-yl)seryl-3-(3-hexopyranosyl-2-iminoimidazolidin-4-yl)serylseryl]]
median effective dose (ED50), Staphylococcus aureus-SMITH (GC 4543) [1]: 0.14 mg/kg
MIC Enterococcus faecalis (GC 2242) (Enterococcus sp.; Enterococcus faecalis (GC 2242)): 4 µg/mL (≈ 2.74 µM)
MIC Enterococcus faecalis (GC 2691) (Enterococcus sp.; Enterococcus faecalis (GC 2691)): 4 µg/mL (≈ 2.74 µM)
MIC Enterococcus faecalis (GC 3059) (Enterococcus sp.; Enterococcus faecalis (GC 3059)): 4 µg/mL (≈ 2.74 µM)
MIC Enterococcus faecalis (ATCC 29212) (Enterococcus sp.; inoculum 5×10^5 CFU/mL): 4 µg/mL (≈ 2.74 µM)
MIC Enterococcus faecium (GC 2243) (Enterococcus sp.; inoculum 5×10^5 CFU/mL): 4 µg/mL (≈ 2.74 µM)
MIC Enterococcus faecalis (GC 4552) (Enterococcus sp.; inoculum 5×10^5 CFU/mL): 8 µg/mL (≈ 5.47 µM)
MIC Enterococcus faecalis (GC 4553) (Enterococcus sp.; inoculum 5×10^5 CFU/mL): 4 µg/mL (≈ 2.74 µM)
MIC Enterococcus faecalis (GC 4554) (Enterococcus sp.; inoculum 5×10^5 CFU/mL): 4 µg/mL (≈ 2.74 µM)
MIC Enterococcus faecium (GC 4556) (Enterococcus sp.; inoculum 5×10^5 CFU/mL): 8 µg/mL (≈ 5.47 µM)
MIC Enterococcus faecium (GC 4557) (Enterococcus sp.; inoculum 5×10^5 CFU/mL): 2 µg/mL (≈ 1.37 µM)
MIC Enterococcus avium (GC 4558) (Enterococcus sp.; inoculum 5×10^5 CFU/mL): 4 µg/mL (≈ 2.74 µM)
MIC Enterococcus faecalis (GC 6189) (Enterococcus sp.; inoculum 5×10^5 CFU/mL): 4 µg/mL (≈ 2.74 µM)
MIC Enterococcus faecalis (ATCC 29212) (Enterococcus sp.): 4 µg/mL (≈ 2.74 µM)
MIC Enterococcus faecalis (GC 2242) (Enterococcus sp.; strain GC 2242): 4 µg/mL (≈ 2.74 µM)
MIC Enterococcus faecium (GC 2243) (Enterococcus sp.): 4 µg/mL (≈ 2.74 µM)
MIC Enterococcus faecalis (GC 2691) (Enterococcus sp.; strain GC 2691): 4 µg/mL (≈ 2.74 µM)
MIC Enterococcus faecalis (GC 3059) (Enterococcus sp.; strain GC 3059): 4 µg/mL (≈ 2.74 µM)
MIC Enterococcus faecalis (GC 4552) (Enterococcus sp.): 8 µg/mL (≈ 5.47 µM)
MIC Enterococcus faecalis (GC 4553) (Enterococcus sp.): 4 µg/mL (≈ 2.74 µM)
MIC Enterococcus faecalis (GC 4554) (Enterococcus sp.): 4 µg/mL (≈ 2.74 µM)
MIC Enterococcus faecium (GC 4556) (Enterococcus sp.): 8 µg/mL (≈ 5.47 µM)
MIC Enterococcus faecium (GC 4557) (Enterococcus sp.): 2 µg/mL (≈ 1.37 µM)
MIC Enterococcus avium (GC 4558) (Enterococcus sp.): 4 µg/mL (≈ 2.74 µM)
MIC Enterococcus faecalis (GC 6189) (Enterococcus sp.): 4 µg/mL (≈ 2.74 µM)
MIC Streptococcus agalactiae (GC 4564) (Streptococcus sp.; Streptococcus agalactiae (GC 4564)): 0.25 µg/mL (≈ 0.171 µM)
MIC Streptococcus pneumoniae (ATCC 6301) (Streptococcus sp.; Streptococcus pneumoniae (ATCC 6301)): 0.12 µg/mL (≈ 0.0821 µM)
MIC Streptococcus pneumoniae (GC 1894) (Streptococcus sp.; Streptococcus pneumoniae (GC 1894)): <0.06 µg/mL
MIC Streptococcus pneumoniae (GC 4565) (Streptococcus sp.; Streptococcus pneumoniae (GC 4565)): <0.06 µg/mL
MIC Streptococcus pyogenes (GC 4563) (Streptococcus sp.; Streptococcus pyogenes (GC 4563)): 0.25 µg/mL (≈ 0.171 µM)
MIC Streptococcus pneumoniae (ATCC 6301) (Streptococcus sp.; strain ATCC 6301): 0.12 µg/mL (≈ 0.0821 µM)
MIC Streptococcus pneumoniae (GC 1894) (Streptococcus sp.; strain GC 1894): <0.06 µg/mL
MIC Streptococcus pyogenes (GC 4563) (Streptococcus sp.; strain GC 4563): 0.25 µg/mL (≈ 0.171 µM)
MIC Streptococcus agalactiae (GC 4564) (Streptococcus sp.; strain GC 4564): 0.25 µg/mL (≈ 0.171 µM)
MIC Streptococcus pneumoniae (GC 4565) (Streptococcus sp.; strain GC 4565): <0.06 µg/mL
MIC Staphylococcus aureus (GC 1131) (Staphylococcus sp.; inoculum 5×10^5 CFU/mL): 2 µg/mL (≈ 1.37 µM)
MIC Staphylococcus aureus (ATCC 29213) (Staphylococcus sp.; strain ATCC 29213): 2 µg/mL (≈ 1.37 µM)
MIC Staphylococcus aureus (GC 1131) (Staphylococcus sp.): 2 µg/mL (≈ 1.37 µM)
MIC Staphylococcus aureus (GC 3051) (Staphylococcus sp.; strain GC 3051): 1 µg/mL (≈ 0.684 µM)
MIC Staphylococcus aureus (GC 3053) (Staphylococcus sp.; strain GC 3053): 2 µg/mL (≈ 1.37 µM)
MIC Staphylococcus aureus (GC 4541) (Staphylococcus sp.; strain GC 4541): 1 µg/mL (≈ 0.684 µM)
MIC Staphylococcus aureus (GC 4542) (Staphylococcus sp.; strain GC 4542): 1 µg/mL (≈ 0.684 µM)
MIC Staphylococcus aureus-SMITH (GC 4543) (Staphylococcus sp.; strain GC 4543): 2 µg/mL (≈ 1.37 µM)
MIC Staphylococcus aureus (GC 4544) (Staphylococcus sp.; strain GC 4544): 2 µg/mL (≈ 1.37 µM)
MIC Staphylococcus aureus (GC 4545) (Staphylococcus sp.; strain GC 4545): 2 µg/mL (≈ 1.37 µM)
MIC Staphylococcus haemolyticus (GC 4546) (Staphylococcus sp.; strain GC 4546): 0.5 µg/mL (≈ 0.342 µM)
MIC Coagulase Negative Staphylococcus (GC 4547) (Staphylococcus sp.; strain GC 4547): 2 µg/mL (≈ 1.37 µM)
MIC Coagulase Negative Staphylococcus (GC 4548) (Staphylococcus sp.; strain GC 4548): 1 µg/mL (≈ 0.684 µM)
MIC Coagulase Negative Staphylococcus (GC 4549) (Staphylococcus sp.; strain GC 4549): 1 µg/mL (≈ 0.684 µM)
MIC Coagulase Negative Staphylococcus (GC 4551) (Staphylococcus sp.; strain GC 4551): 2 µg/mL (≈ 1.37 µM)
MIC Coagulase Negative Staphylococcus (GC 6257) (Staphylococcus sp.; strain GC 6257): 1 µg/mL (≈ 0.684 µM)
MIC Staphylococcus aureus-SMITH (GC 4543) (Staphylococcus sp.; strain SMITH GC 4543): 2 µg/mL (≈ 1.37 µM)
MIC Escherichia coli (ATCC 25922) (Escherichia coli; strain ATCC 25922, 18 hours at 35° C.): 64 µg/mL (≈ 43.8 µM)
MIC Escherichia coli (GC 4559) (Escherichia coli; strain GC 4559, 18 hours at 35° C.): 64 µg/mL (≈ 43.8 µM)
MIC Escherichia coli (GC 4560) (Escherichia coli; strain GC 4560, 18 hours at 35° C.): 1 µg/mL (≈ 0.684 µM)
